According to patent publication US7923984B2, “Universal, wireless, nano-optical voltmeters” (The Regents of the University Of Michigan, priority 2007, dated 2011):
Where a name gives a salt, the structure may show the parent alone.

Experiments:
[1] = tested on: mitochondrial membrane E field in DITNC astrocytes; assay: Repeated CCCP depolarizations in astrocytes measured by E-PEBBLEs; assay type: cell-based, rat; conditions: 3.1 μM at 3 min 50 s, second dose at 33 min 50 s; 600:700 nm ratio
Procedure: Repeated depolarizations of mitochondrial membrane potentials were performed as follows. Astrocytes were prepared as described above. Z series of Images were taken every minute for 15 minutes and every 5 minutes thereafter for 30 minutes. At time 3 minutes 50 sec, 1 μL of a CCCP solution (3.1 mM dissolved in DMSO and HBSS with HEPES; concentration in chamber was 3.1 μM) was added to the chamber. Starting at the 30 minute time point, images were again taken every minute until the 45 minute time point and every five minutes thereafter until the 60 minute time point. At time 33 minutes 50 seconds, a second dose of CCCP (3.1 mM) was added. The final concentration in the cell chamber for CCCP was 6.1 μM.
Cellular image analysis was performed as follows. Images of specific focal planes were transferred to the MetaMorph image analysis package and regions of interest (ROI) chosen consistent with TMRM-induced mitochondrial fluorescence, or the autofluorescent mitochondria of the astrocytes. In some cases, the images were expanded and regions of interest were also chosen from the surrounding cytosol. The average pixel intensity was determined for each ROI, and the emission ratio of the 525:700 nm images was then calculated. In some cases, the emission ratio of 600:700 nm was calculated. […] For the TMRM channel, the average pixel intensity was recorded. […]

[2] = tested on: mitochondrial membrane E field in C6 glioma cells; assay: CCCP depolarization of mitochondria in C6 gliomas monitored by NOV; assay type: cell-based, Mouse; conditions: CCCP total concentration 10 μM
Procedure: Depolarization, comparison with TMRM, and cytosol measurements were performed as follows. Mouse C6 glioma cells were plated on to glass cover slips at a concentration of approximately 2.5×10^5 cells/mL. Cells were incubated in DMEM supplemented with 10% FBS and 1% p/s overnight. The media was then removed and replaced with fresh media. NOVs were added to the suspension (125-250 μg particles) and the cells incubated for 30 minutes. The cover slip was rinsed with HBSS containing 10 mmol N-2-Hydroxyethylpiperazine-N′-2-Ethane Sulfonic Acid (HEPES) and placed in a stainless steel cell chamber with 1 mL HBSS containing 10 mmol HEPES. […]
Image analysis was performed as follows. Images were transferred to the MetaMorph image analysis package and regions of interest chosen consistent with TMRM-induced mitochondrial fluorescence, or the autofluorescent mitochondria of the astrocytes. […] The average pixel intensity ratio of the 600 nm image versus the 700 nm image was then calculated. For the TMRM channel, the average pixel intensity was recorded.
CCCP depolarization was performed as follows. […] A region of interest was first determined in Metamorph by the punctuated bright areas that indicated mitochondria through TMRM localization. The emission ratio was then determined at the measurement time points. […]

[3] = tested on: mitochondrial membrane E field in DITNC astrocytes; assay: Sequential CCCP depolarizations in astrocytes monitored by NOVs; assay type: cell-based; conditions: 5 μM CCCP, second dose at 46 minutes
Procedure: Repeat depolarizations were performed as follows. Astrocytes were prepared as above, but the cell chamber only contained 500 μL of HBSS with HEPES. 500 μL CCCP (5 μM final concentration in chamber) was added and images were collected every minute for the first 10 minutes after the addition of CCCP and every 5 minutes thereafter until the 45 minute time point. Then 500 μL of the CCCP solution was added at the 46 minute time point, and the images taken every minute until the 55 minute time point and every five minutes until the 90 minute time point.
Image analysis was performed as follows. Images were transferred to the MetaMorph image analysis package and regions of interest chosen consistent with TMRM-induced mitochondrial fluorescence, or the autofluorescent mitochondria of the astrocytes. In some cases, the images were expanded and regions of interest (ROI) were also chosen from the surrounding cytosol. The average pixel intensity ratio of the 600 nm image versus the 700 nm image was then calculated. For the TMRM channel, the average pixel intensity was recorded.
Sequential depolarizations were performed as follows. Astrocytes with autofluorescent mitochondria (to eliminate the need for TMRM) were incubated with NOVs, transferred to a confocal microscope, and the mitochondrial membrane depolarized with the use of CCCP. […]

[4] = tested on: mitochondrial membrane E field in DITNC astrocytes; assay: CCCP challenge of mitochondrial membrane E field in DITNC astrocytes measured by E-PEBBLEs; assay type: cell-based, rat; conditions: CCCP 12.2 μM added at 3 min 40 s
Procedure: Mitochondrial membrane and cytosol potentials were measured as follows. Immortalized rat (DITNC) astrocytes with autoflourescent mitochondria (American Type Culture Collection, Manassas, Va.) were plated on to glass cover slips at a concentration of ˜2×10^5 cells/mL. Cells were incubated in Dulbecco's Modified Eagle Medium (DMEM) supplemented with 10% fetal bovine serum and 1% penicillin/streptomycin (Invitrogen, Carlsbad, Calif.) overnight. The media was then removed and replaced with fresh media. […] The cover slip was rinsed with Hank's Balanced Salt Solution (HBSS) (Invitrogen, Carlsbad, Calif.) containing 10 mmol N-2-Hydroxyethylpiperazine-N′-2-Ethane Sulfonic Acid (HEPES) and placed in a stainless steel cell chamber with 1 mL HBSS containing 10 mmol HEPES. In some cases, tetramethylrhodamine methyl ester (TMRM) (Molecular Probes, Eugene, Oreg.) dissolved in dimethyl sulfoxide (DMSO) was added to the chamber for a total concentration of ˜50 nM to confirm mitochondrial fluorescence.
The entire chamber was mounted on a confocal microscope at room temperature (Olympus IX70 connected to a Life Science Resources UltraView equipped with an Ar—Kr laser and a Lambda 10-2 Sutter wheel from Sutter Instrument Co. Novato, Calif.) and examined with a 60× objective connected to a Z series motor. Four Z stacks were taken 1 minute apart, starting with time zero. […] Slices analyzed were ˜3-4 microns into the cell as measured from the bottom of the cell. […]
Cellular image analysis was performed as follows. Images of specific focal planes were transferred to the MetaMorph image analysis package and regions of interest (ROI) chosen consistent with TMRM-induced mitochondrial fluorescence, or the autofluorescent mitochondria of the astrocytes. […] The average pixel intensity was determined for each ROI, and the emission ratio of the 525:700 nm images was then calculated. In some cases, the emission ratio of 600:700 nm was calculated. […] For the TMRM channel, the average pixel intensity was recorded. […]

[5] = tested on: astrocytes, mitochondrial and microfilament regions; assay: CCCP challenge of mitochondrial and microfilament regions in astrocytes; assay type: cell-based; conditions: CCCP at 3 min 45 sec
Procedure: Microfilaments in astrocytes. Astrocytes were co-incubated with E-PEBBLEs and alexafluor-phalloidin (a microfilament stain). The fluorescence arising from the mitochondria, E-PEBBLEs, and microfilaments were able to be resolved though use of different fluorescent emission filters.
The cells were challenged with CCCP at 3 min 45 sec using normal experimental parameters, as described in Example 7.

C6 glioma cells = assay: Localization, uptake and cytotoxicity of particles in C6 glioma cells; assay type: cell-based, Rat; conditions: same final dye concentration as delivered in the NOV
Procedure: Mouse C6 glioma cells were plated on to glass cover slips at a concentration of approximately 2.5×10^5 cells/mL. Cells were incubated in DMEM supplemented with 10% FBS and 1% p/s overnight. The media was then removed and replaced with fresh media. NOVs were added to the suspension (125-250 μg particles) and the cells incubated for 30 minutes. The cover slip was rinsed with HBSS containing 10 mmol N-2-Hydroxyethylpiperazine-N′-2-Ethane Sulfonic Acid (HEPES) and placed in a stainless steel cell chamber with 1 mL HBSS containing 10 mmol HEPES. In some cases TMRM dissolved in dimethyl sulfoxide was added to the chamber for a total concentration of 50 nM and the chamber was allowed to equilibrate for 10 minutes. The entire chamber was mounted on the confocal microscope and examined with a 60× objective connected to a Z series motor. One mL of a CCCP solution (total concentration 10 μM and, in some cases, containing 50 nM TMRM) was added to the cell chamber and a timer started. A series of images (1 to 2 μm in thickness) was taken in the vertical plane 15 seconds after addition of the CCCP solution, and then every minute for the first 10 minutes. Images were taken at 5 minute intervals thereafter until the 30 minute time point. Cells were illuminated at 488 nm and the fluorescent images were collected at 600 nm (50 nm band pass) and 700 nm (50 nm band pass) for the first two channels. […]

DITNC astrocytes = assay: Uptake, localization and tolerability of E-PEBBLEs in astrocytes; assay type: cell-based, rat; conditions: same final dye concentration as delivered in the E-PEBBLEs
Text: Cells were illuminated at 488 nm and the fluorescent images were collected at 600 nm (50 nm band pass), 700 nm (50 nm band pass), and 525 nm (50 nm band pass).
Cell groups that appeared visually robust (i.e., elongate with little or no ruffling or blebbing of the membrane) were used for analysis.

N#CC(C#N)=NNc1cccc(Cl)c1 [CCCP, Carbonyl cyanide 3-chlorophenylhydrazone]
change of mitochondrial E field after repeated CCCP doses [1]: the E field rapidly decreases, followed by a modest repolarization
time for mitochondrial E field to approach zero after addition of CCCP [2]: approximately 10 minutes
change of mitochondrial E field after CCCP [3]: decrease in the E field during the first 10 minutes
drop in E field from minute 3 to minute 4 [4]: 55%
mitochondrial E field at t=4 min after CCCP [4]: −1.4×10^6 V/m
overall drop in E field from t=0 min to t=30 min [4]: 55%
response of microfilament regions to CCCP [5]: spike at the 10-15 minute time point
response of mitochondrial regions to CCCP [5]: normal depolarization

CCCCN(CCCC)c1ccc2cc(C=Cc3cc[n+](CCCS(=O)(=O)[O-])cc3)ccc2c1 [free dye, pyridinium, 4-(2-(6-(dibutylamino)-2-naphthalenyl)ethenyl)-1-(3-sulfopropyl)-, hydroxide, inner salt]
fluorescence of cells exposed to free dye in water (uptake) (C6 glioma cells): did not fluoresce
fluorescence of cells exposed to free dye in an aqueous solution (uptake) (DITNC astrocytes): did not fluoresce
